In US6184333A, “Low-toxicity, high-temperature polyimides” (Maverick Corporation, priority 1999, dated 2001):

Legend:
[1] = tested on: rat; test: Acute oral LD50; type: in vivo; settings: vs. MDA
Source text: Except for BAX, the advantages of these diamines include low cost (<$50/pound) as well as low toxicity. […] (ADD IN FNOTE 19) Table I compares the toxicological data of MDA vs. That of Bisaninine-P and Bisaniline-M. In addition, the Ames Mutagenicity Assays for Bisaniline-P and Bisaniline-M were negative with and without metabolic activation. (ID)

[2] = Solubility in methanol; type: physicochemical
Source text: A matrix of polyirnide copolymers was synthesized by using Bisaniline-P, Bisaniline-M, and paraphenylenediamine (PPDA). Partial molar substitutions of PPDA (up to 50 mole percent) were used in order to increase glass transition temperatuer and/or thermal oxidative stability. Pre-polymer molecular weight was also adjusted to favorably impact processing parameters as well as the final Tg. Each copolymer was formulated at a molar ratio of 2 NE: 2 BTDE: 3 Diamine. All of the resin systems were synthesized using standard techniques known in the industry. In some of the BIS-P formulations, n-methylpyrrilidinone (NMP) was used as a solvent in addition to methanol. This was done in order to maintain the solubility of the fairly large molecular-weight BIS-P diamine. […] A detailed description of the low-toxicity polyimnide systems that were developed is shown below in Table IV.

[3] = tested on: rat; settings: cited from earlier work
[4] = tested on: rabbit skin; settings: cited from earlier work
[5] = with and without metabolic activation; cited from earlier work
[6] = cited from earlier work; for Carcinogenicity: animals, where stated; for Toxicity: in vivo
[7] = tested on: rat; settings: cited from earlier work; remark: listed apart in the source

SMILES	Acute oral LD50 compared with that of MDA [1]	Solubility in methanol [2]	Acute Oral LD50 [3]	Skin irritation (printed in the Acute Dermal LD50 line) [4]	Ames Mutagenicity Assay [5]	Carcinogenicity [6]	Toxicity [6]	Acute Dermal LD50 [7]	Human carcinogenicity ([6]; human)
CC(C)(c1ccc(N)cc1)c1cccc(C(C)(C)c2ccc(N)cc2)c1 [BIS-M, 4,4'-(1,3-phenylene-bis(1-methylethylidene))bisaniline]	more than ten times higher	readily soluble	6,240 mg/kg	Non-irritating	negative				
Nc1ccc(N)cc1 [PPDA, para-phenylenediamine]						no carcinogenic activity in animals			
CC(C)(c1ccc(Oc2ccc(N)cc2)cc1)c1ccc(Oc2ccc(N)cc2)cc1 [BAPP, 2,2-bis(4-[4-aminophenoxyl]phenyl) propane]						non-carcinogenic	non-toxic		
Nc1ccc(Cc2ccc(N)cc2)cc1 [MDA, 4,4'-methylenedianiline, reference compound]			347 mg/kg			known animal carcinogen	known kidney and liver toxin	200 mg/kg	suspected human carcinogen
CC(C)(c1ccc(N)cc1)c1ccc(C(C)(C)c2ccc(N)cc2)cc1 [BIS-P, 4,4'-(1,4-phenylene-bis(1-methylethylidene))bisaniline]	more than ten times higher		> 5,000 mg/kg		negative			> 2,000 mg/kg	
